Experimental data taken from ChEMBL document CHEMBL1125129, “Design of potent and selective linear antagonists of vasopressor (V1-receptor) responses to vasopressin” (J Med Chem, 1990).

Legend:
Vasopressin V1 receptor = Vasopressin V1 receptor (Rattus norvegicus, UniProt P48974+P30560); test: pA2 value was determined for Vasopressin V1 receptor antagonistic activity in vivo in anesthetized rats; type: functional, organism-based
Rattus norvegicus = test: pA2 value was determined for antidiuretic V2 antagonistic activity in vivo in anesthetized rats pA2 value was determined for antidiuretic V2 antagonistic activity in vivo in anesthetized rats; type: functional, organism-based; details: Urine, read-out: pA2 (converted)
[1] = biological target: Vasopressin V2 receptor (Rattus norvegicus) (UniProt Q00788); test: Effective dose was determined for Vasopressin V2 receptor antagonistic activity in vivo in anesthetized rats; type: functional, organism-based
Sequence of Vasopressin V2 receptor (Rattus norvegicus) (Q00788 whole entry): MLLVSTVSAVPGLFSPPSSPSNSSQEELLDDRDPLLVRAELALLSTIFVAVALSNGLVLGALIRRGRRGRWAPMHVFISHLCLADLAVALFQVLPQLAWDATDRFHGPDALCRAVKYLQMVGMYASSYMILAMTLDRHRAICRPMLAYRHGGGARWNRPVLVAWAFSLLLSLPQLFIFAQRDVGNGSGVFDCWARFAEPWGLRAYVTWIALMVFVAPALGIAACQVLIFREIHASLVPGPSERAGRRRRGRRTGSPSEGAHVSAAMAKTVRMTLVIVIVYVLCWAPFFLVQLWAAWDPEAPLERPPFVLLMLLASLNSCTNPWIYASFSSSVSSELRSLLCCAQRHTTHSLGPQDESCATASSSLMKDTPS

[2] = biological target: Vasopressin V2 receptor (Rattus norvegicus) (UniProt Q00788); test: Selectivity ratio of antidiuretic Vasopressin V2 receptor ED /[…] receptor ED; details: Urine
[3] = biological target: Vasopressin V1 receptor (Rattus norvegicus) (UniProt P48974+P30560); test: Effective dose was determined for Vasopressin V1 receptor antagonistic activity in vivo in anesthetized rats; type: functional, organism-based
Sequence of Vasopressin V1 receptor (Rattus norvegicus) (P30560 whole entry, looked up): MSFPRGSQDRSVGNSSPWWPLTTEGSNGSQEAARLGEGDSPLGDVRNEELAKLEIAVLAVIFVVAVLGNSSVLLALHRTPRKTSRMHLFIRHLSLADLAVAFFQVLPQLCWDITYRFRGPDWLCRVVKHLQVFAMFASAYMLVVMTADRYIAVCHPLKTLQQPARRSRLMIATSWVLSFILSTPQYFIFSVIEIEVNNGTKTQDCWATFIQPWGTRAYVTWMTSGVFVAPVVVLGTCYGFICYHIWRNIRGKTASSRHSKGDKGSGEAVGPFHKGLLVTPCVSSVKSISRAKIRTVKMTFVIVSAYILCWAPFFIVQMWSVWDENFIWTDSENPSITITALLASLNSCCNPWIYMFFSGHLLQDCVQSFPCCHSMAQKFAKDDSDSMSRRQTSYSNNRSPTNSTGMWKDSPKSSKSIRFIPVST
Sequence of Vasopressin V1 receptor (Rattus norvegicus) (P48974 whole entry, looked up): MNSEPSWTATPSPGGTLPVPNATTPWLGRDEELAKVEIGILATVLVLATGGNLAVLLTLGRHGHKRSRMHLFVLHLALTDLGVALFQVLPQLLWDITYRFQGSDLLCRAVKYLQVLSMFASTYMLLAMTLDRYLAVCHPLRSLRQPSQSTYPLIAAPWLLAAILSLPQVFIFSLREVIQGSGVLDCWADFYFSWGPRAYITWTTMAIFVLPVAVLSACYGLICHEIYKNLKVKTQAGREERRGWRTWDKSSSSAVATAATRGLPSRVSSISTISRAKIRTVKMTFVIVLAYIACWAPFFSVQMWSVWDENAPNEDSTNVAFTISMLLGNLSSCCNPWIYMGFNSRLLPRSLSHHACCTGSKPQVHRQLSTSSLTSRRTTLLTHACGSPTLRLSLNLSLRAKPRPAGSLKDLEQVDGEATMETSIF

Vasopressin V2 receptor = Vasopressin V2 receptor (Rattus norvegicus, UniProt Q00788); test: Vasopressin V2 receptor antagonistic activity in vivo in anesthetized rats; type: functional, organism-based; details: for Kb: read-out: pA2 (converted)
Sequence of Vasopressin V2 receptor (Q00788 whole entry): as the sequence (Q00788 whole entry) above

pA2 (Vasopressin V1 receptor) | Kb (Vasopressin V2 receptor) [nM] | SMILES | Kb (Rattus norvegicus) [nM] | other results
9.05 |  | CCOc1ccc(C[C@@H](NC(=O)Cc2ccccc2)C(=O)N[C@@H](Cc2ccccc2)C(=O)N[C@@H](CCC(N)=O)C(=O)N[C@@H](CC(N)=O)C(=O)N[C@@H](CCCCN)C(=O)N2CCC[C@H]2C(=O)N[C@@H](CCCN=C(N)N)C(N)=O)cc1 | 501 | 
8.63 |  | CCOc1ccc(C[C@@H](NC(=O)CC(C)(C)C)C(=O)N[C@@H](Cc2ccccc2)C(=O)N[C@H](C(=O)N[C@@H](CC(N)=O)C(=O)N[C@@H](CCCCN)C(=O)N2CCC[C@H]2C(=O)N[C@@H](CCCN=C(N)N)C(N)=O)C(C)C)cc1 | 100 | 
8.28 |  | CCOc1ccc(C[C@@H](NC(=O)CC23CC4CC(CC(C4)C2)C3)C(=O)N[C@@H](Cc2ccccc2)C(=O)N[C@H](C(=O)N[C@@H](CC(N)=O)C(=O)N[C@@H](CCCN=C(N)N)C(=O)N(C)[C@@H](C)C(=O)N[C@@H](CCCN=C(N)N)C(N)=O)C(C)C)cc1 | 17 | Effective dose [1]: 1.2 nM/kg; Ratio [2]: 3.2; Effective dose [3]: 0.37 nM/kg
8.34 | 251 | CCOc1ccc(C[C@@H](NC(=O)CC(C)(C)C)C(=O)N[C@@H](Cc2ccccc2)C(=O)N[C@H](C(=O)N[C@@H](CC(N)=O)C(=O)N[C@@H](CCCN=C(N)N)C(=O)N(C)[C@@H](C)C(=O)N[C@@H](CCCN=C(N)N)C(N)=O)C(C)C)cc1 |  | Effective dose [1]: 16 nM/kg; Ratio [2]: 53; Effective dose [3]: 0.3 nM/kg
7.64 |  | CCOc1ccc(C[C@@H](NC(=O)CC23CC4CC(CC(C4)C2)C3)C(=O)N[C@@H](Cc2ccccc2)C(=O)N[C@H](C(=O)N[C@@H](CC(N)=O)C(=O)N[C@@H](CCCN)C(=O)N2CCC[C@H]2C(=O)N[C@@H](CCCN=C(N)N)C(=O)N[C@@H](CCCN=C(N)N)C(N)=O)C(C)C)cc1 | ~12.6 | 
8.93 |  | COc1ccc(C[C@@H](NC(=O)Cc2ccccc2)C(=O)N[C@@H](Cc2ccccc2)C(=O)N[C@@H](CCC(N)=O)C(=O)N[C@@H](CC(N)=O)C(=O)N[C@@H](CCCCN)C(=O)N2CCC[C@H]2C(=O)N[C@@H](CCCN=C(N)N)C(N)=O)cc1 | > 316 | 
8.42 | 10.2 | CCOc1ccc(C[C@@H](NC(=O)Cc2ccccc2)C(=O)N[C@@H](Cc2ccccc2)C(=O)N[C@H](C(=O)N[C@@H](CC(N)=O)C(=O)NCCCC(=O)N2CCC[C@H]2C(=O)N[C@@H](CCCN=C(N)N)C(=O)N[C@@H](CCCN=C(N)N)C(N)=O)C(C)C)cc1 |  | 
7.75 | 7.76 | CCOc1ccc(C[C@@H](NC(=O)CC23C[C@H]4C[C@@H](C2)C[C@@H](C3)C4)C(=O)N[C@@H](Cc2ccccc2)C(=O)N[C@H](C(=O)N[C@@H](CC(N)=O)C(=O)NCCCC(=O)N2CCC[C@H]2C(=O)N[C@@H](CCCN=C(N)N)C(=O)N[C@@H](CCCN=C(N)N)C(N)=O)C(C)C)cc1 |  | 
7.43 |  | CCOc1ccc(C[C@@H](NC(=O)CC23C[C@H]4C[C@@H](C2)C[C@@H](C3)C4)C(=O)N[C@@H](Cc2ccccc2)C(=O)N[C@H](C(=O)N[C@@H](CC(N)=O)C(=O)N[C@@H](CC)C(=O)N2CCC[C@H]2C(=O)N[C@@H](CCCN=C(N)N)C(N)=O)C(C)C)cc1 |  | pA2 (Vasopressin V2 receptor): 7.21
8.01 |  | CCOc1ccc(C[C@@H](NC(=O)CC23CC4CC(CC(C4)C2)C3)C(=O)N[C@@H](Cc2ccccc2)C(=O)N[C@H](C(=O)N[C@@H](CC(N)=O)C(=O)N[C@@H](CCCN=C(N)N)C(=O)N2CCC[C@H]2C(=O)N[C@@H](CCCN=C(N)N)C(N)=O)C(C)C)cc1 | 18.6 | 
8.47 |  | CCOc1ccc(C[C@@H](NC(=O)Cc2ccccc2)C(=O)N[C@@H](Cc2ccccc2)C(=O)N[C@H](C(=O)N[C@@H](CC(N)=O)C(=O)N[C@@H](CCCCN)C(=O)N2CCC[C@H]2C(=O)N[C@@H](CCCN=C(N)N)C(=O)N[C@@H](CCCN=C(N)N)C(N)=O)C(C)C)cc1 | ~141 | 
8.4 | 6310 | CCOc1ccc(C[C@@H](NC(=O)CC(C)(C)C)C(=O)N[C@@H](Cc2ccccc2)C(=O)N[C@@H](CCC(N)=O)C(=O)N[C@@H](CC(N)=O)C(=O)N[C@@H](CCCCN)C(=O)N2CCC[C@H]2C(=O)N[C@@H](CCCN=C(N)N)C(N)=O)cc1 |  | 
7.99 | 12.3 | CCOc1ccc(C[C@@H](NC(=O)CC(C)(C)C)C(=O)N[C@@H](Cc2ccccc2)C(=O)N[C@H](C(=O)N[C@@H](CC(N)=O)C(=O)NCCCC(=O)N2CCC[C@H]2C(=O)N[C@@H](CCCN=C(N)N)C(=O)N[C@@H](CCCN=C(N)N)C(N)=O)C(C)C)cc1 |  | 
8.81 | 43.7 | CCOc1ccc(C[C@@H](NC(=O)Cc2ccccc2)C(=O)N[C@@H](Cc2ccccc2)C(=O)N[C@H](C(=O)N[C@@H](CC(N)=O)C(=O)N[C@@H](CCCCN)C(=O)N2CCC[C@H]2C(=O)N[C@@H](CCCN=C(N)N)C(N)=O)C(C)C)cc1 |  | 
7.33 |  | CCOc1ccc(C[C@@H](NC(=O)CC23CC4CC(CC(C4)C2)C3)C(=O)N[C@@H](Cc2ccccc2)C(=O)N[C@H](C(=O)N[C@@H](CC(N)=O)C(=O)N[C@@H](CCCN)C(=O)N2CCC[C@H]2C(=O)N[C@@H](CCCN=C(N)N)C(N)=O)C(C)C)cc1 | 15.5 | 
8.91 | 63.1 | NCCCC[C@H](NC(=O)[C@H](CC(N)=O)NC(=O)[C@H](CCC(N)=O)NC(=O)[C@H](Cc1ccccc1)NC(=O)[C@@H](Cc1ccc(O)cc1)NC(=O)Cc1ccccc1)C(=O)N1CCC[C@H]1C(=O)N[C@@H](CCCN=C(N)N)C(N)=O |  | 
8.13 |  | CCOc1ccc(C[C@@H](NC(=O)CC23CC4CC(CC(C4)C2)C3)C(=O)N[C@@H](Cc2ccccc2)C(=O)N[C@H](C(=O)N[C@@H](CC(N)=O)C(=O)N[C@@H](CCCN=C(N)N)C(=O)N2CCC[C@H]2C(=O)N[C@@H](CCCN=C(N)N)C(=O)N[C@@H](CCCN=C(N)N)C(N)=O)C(C)C)cc1 | 10.5 | 

SMILES | pA2 (Vasopressin V1 receptor) | Kb (Vasopressin V2 receptor) [nM] | Kb (Rattus norvegicus) [nM] | other results
CCOc1ccc(C[C@H]2NC(=O)CC3(CCCCC3)SSC[C@@H](C(=O)N3CCC[C@H]3C(=O)N[C@@H](CCCN=C(N)N)C(N)=O)NC(=O)[C@H](CC(N)=O)NC(=O)[C@H](C(C)C)NC(=O)[C@H](Cc3ccccc3)NC2=O)cc1 | 8.17 |  | 20.4 | 
